In BindingDB's records for doi:10.1016/j.ejmech.2012.11.007 (Chungnam National University, 2013) one finds IC50 data, which are given here for 24 molecules.

The assay can be described thus: Inhibition of IL-5 in mouse pro-B Y16 cells after 48 hrs by WST1 assay.

In general, IC50 refers to the midpoint of a concentration-inhibition curve.

Consider `N#Cc1ccc(C(O)/C=C/c2coc3cccc(OCC4CCCCC4)c3c2=O)cc1` (centres undefined), for which half-maximal inhibition (IC50) required 6.7 µM.

For `O=c1c(/C=C/C(O)c2ccc([N+](=O)[O-])cc2)coc2cccc(OCC3CCCCC3)c12` (centres undefined), half-maximal inhibition (IC50) required 7 µM.

For `O=c1c(/C=C/C(O)c2ccc(C(F)(F)F)cc2)coc2cccc(OCC3CCCCC3)c12` (centres undefined), the midpoint of inhibition, the IC50, lay at 13.2 µM.

`O=c1c(/C=C/C(O)c2ccc(F)cc2)coc2cccc(OCC3CCCCC3)c12` (centres undefined) had an IC50 of 6.4 µM.

Regarding `O=c1c(/C=C/C(O)c2ccc(Cl)cc2)coc2cccc(OCC3CCCCC3)c12` (centres undefined), the concentration for half-maximal inhibition (IC50) is 7 µM.

Regarding `CC(C)(C)c1ccc(C(O)/C=C/c2coc3cccc(OCC4CCCCC4)c3c2=O)cc1` (centres undefined), the IC50 is greater than 30 µM.

`Cc1ccc(C(O)/C=C/c2coc3cccc(OCC4CCCCC4)c3c2=O)cc1` (centres undefined) displayed a 50% inhibitory concentration (IC50) of 15 µM.

For the molecule `COc1ccc(C(O)/C=C/c2coc3cccc(OCC4CCCCC4)c3c2=O)cc1` (centres undefined), the half-maximal inhibitory concentration (IC50) came out at 16 µM.

`O=c1c(/C=C/C(O)c2ccccc2)coc2cccc(OCC3CCCCC3)c12` (centres undefined) came in with an IC50 of 15 µM.

As for `O=c1c(/C=C/C(O)c2ccc(O)cc2)coc2cccc(OCC3CCCCC3)c12` (centres undefined), it took 12.5 µM to reach half-maximal inhibition (IC50).

As to `CC(C)COc1cccc2occ(/C=C/C(O)c3ccc(O)cc3)c(=O)c12` (centres undefined), the IC50 was greater than 30 µM.

Molecule `COc1cccc2occ(/C=C/C(O)c3ccc(O)cc3)c(=O)c12` (centres undefined) came in with an IC50 greater than 30 µM.

Consider `N#Cc1ccc(C(=O)/C=C/c2coc3cccc(OCC4CCCCC4)c3c2=O)cc1`, for which the IC50 was greater than 30 µM.

The molecule `O=C(/C=C/c1coc2cccc(OCC3CCCCC3)c2c1=O)c1ccc([N+](=O)[O-])cc1` registered an IC50 greater than 30 µM.

In the case of `O=C(/C=C/c1coc2cccc(OCC3CCCCC3)c2c1=O)c1ccc(C(F)(F)F)cc1`, the half-inhibitory concentration (IC50) was greater than 30 µM.

For the molecule `O=C(/C=C/c1coc2cccc(OCC3CCCCC3)c2c1=O)c1ccc(F)cc1`, the IC50 is greater than 30 µM.

Molecule `O=C(/C=C/c1coc2cccc(OCC3CCCCC3)c2c1=O)c1ccc(Cl)cc1` came in with a half-maximal inhibitory concentration (IC50) greater than 30 µM.

As for `CC(C)(C)c1ccc(C(=O)/C=C/c2coc3cccc(OCC4CCCCC4)c3c2=O)cc1`, half-maximal inhibition (IC50) required 18.1 µM.

Molecule `Cc1ccc(C(=O)/C=C/c2coc3cccc(OCC4CCCCC4)c3c2=O)cc1` gave an IC50 of 25.1 µM.

In the case of `COc1ccc(C(=O)/C=C/c2coc3cccc(OCC4CCCCC4)c3c2=O)cc1`, the 50% inhibitory concentration (IC50) is greater than 30 µM.

Turning to `O=C(/C=C/c1coc2cccc(OCC3CCCCC3)c2c1=O)c1ccccc1`, the half-maximal inhibitory concentration (IC50) is greater than 30 µM.

Regarding `O=C(/C=C/c1coc2cccc(OCC3CCCCC3)c2c1=O)c1ccc(O)cc1`, half-maximal inhibition (IC50) required 16.2 µM.

For the molecule `CC(C)COc1cccc2occ(/C=C/C(=O)c3ccc(O)cc3)c(=O)c12`, it took 19.1 µM to reach half-maximal inhibition (IC50).

Molecule `COc1cccc2occ(/C=C/C(=O)c3ccc(O)cc3)c(=O)c12` showed an IC50 greater than 30 µM.
